Measurements from patent publication EP0341019A2, “Polyether antibiotic” (priority 1988, dated 1989).
Values after ≈ are worked out from the molar mass of the structure shown.

Assays:
[1] = system: Bacteroides melaninogenicus 1856/28; format: cell-based; settings: Prevotella intermedia, 1856/28, 24 h
[2] = system: Streptococcus faecalis 2041; format: cell-based; settings: Enterococcus faecalis, 2041, 24 h
[3] = system: Staphylococcus epidermidis 222; format: cell-based; settings: Staphylococcus epidermidis, 222, 24 h
spider mite = experiment: insecticide test
Source text: (§1) The A82810 compounds are also useful as insecticides. For example, A82810 is active against southern armyworm, spider mite and blowfly larvae at levels as low as 100 ppm and against adult stablefly at levels as low as 50 ppm.

southern armyworm = experiment: insecticide test
Source text: as §1

blowfly larvae = experiment: insecticide test
Source text: as §1

adult stablefly = experiment: insecticide test
Source text: as §1

[4] = system: Haemophilus influenzae C.L.; format: cell-based; settings: 24 h
[5] = system: Peptostreptococcus intermedius 1624; format: cell-based; settings: Peptostreptococcus, 1624, 24 h
[6] = system: Eimeria acervulina Strain FS-316 And E. tenella Strain FS-456; experiment: anticoccidial feed test in infected chickens, ionophore-resistant strains; format: in vivo
[7] = system: Clostridium perfringens 81; experiment: microbe, parasite or virus in culture; format: cell-based; settings: Clostridium perfringens, 81, 24 h
Brazil influenza virus = format: cell-based; settings: tissue culture
[8] = system: Staphylococcus aureus V41; format: cell-based; settings: V41, 24 h
[9] = system: Peptococcus asaccharolyticus 1302; format: cell-based; settings: Peptoniphilus asaccharolyticus, 1302, 24 h
[10] = system: Bacteroides thetaiotaomicron 1438; format: cell-based; settings: 24 h
[11] = system: Bacteroides melaninogenicus 2736; format: cell-based; settings: 2736, 24 h
[12] = system: Haemophilus influenzae 76; format: cell-based; settings: Haemophilus influenzae, 76, 24 h
[13] = system: Herpes simplex viruses (HSV I); experiment: antiviral tissue-culture test; format: cell-based, Herpes simplex virus
[14] = system: Staphylococcus aureus X400; format: cell-based; settings: X400, 24 h
Escherichia coli N10 = format: cell-based; settings: N10, 24 h
[15] = system: Pseudomonas aeruginosa X528; format: cell-based; settings: X528, 24 h
[16] = system: Great Lakes influenza virus; format: cell-based; settings: tissue culture
Treponema hyodysenteriae = experiment: growth inhibition of swine dysentery agent; format: cell-based
Source text: In another aspect the A82810 compounds are useful in the treatments of swine dysentery. A82810 inhibits the growth of Treponema hyodysenteriae, a causative agent of swine dysentery, at levels as low as 1.56 mcg/mL. A preferred method of administration to swine is by incorporation of an appropriate amount of an A82810 compound into the feed ration or drinking water. An appropriate amount will relate to whether the treatment is to prevent or to cure infection. Usually, a lower concentration of active compound is needed to prevent infection than is required for to eliminate infection in animals already afflicted. In general, amounts in the range of from about 20 to about 100 grams of A82810 compound per ton of feed are effective to prevent infection. Amounts in the range of from about 100 to about 500 g of A82810 compound per ton of feed are recommended for treating swine suffering from dysentery. These amounts provide from about 1 to about 5 mg/kg of body weight per day (prophylactic treatment) or from about 5 to about 25 mg/kg of body weight per day (treatment of infected animal). When added to the drinking water, amounts of from about 0.04 to about 0.2 g (prophylactic) or from about 0.2 to about 1 g (therapeutic) of A82810 compound per gallon of water are recommended.

Escherichia coli EC14 = format: cell-based; settings: EC14, 24 h
Eimeria tenella = experiment: in vitro tissue-culture anticoccidial screen; format: cell-based; settings: in vitro tissue-culture screen against Eimeria tenella
Source text: Anticoccidial activity is an important property of the A82810 compounds. For example, in an in vitro tissue-culture screen against Eimeria tenella, A82810 was active at <0.0025 mcg/mL, propionyl-A82810 was active at 0.05 mcg/mL and acetyl-A82810 was active at 0.01 mcg/mL.

[17] = system: Eimeria maxima Strain FS-410; experiment: anticoccidial feed test in infected chickens, ionophore-resistant strain; format: in vivo

## CC[C@@H](O)[C@]1(C)C[C@H](C)[C@@](O)([C@H]2C[C@H](C)[C@H]([C@]3(C)C[C@@H](O[C@H]4CC[C@H](OC)[C@@H](C)O4)[C@H]([C@]4(C)CC[C@@]5(O[C@H]([C@@H](C)[C@@H](OC)[C@H](C)C(=O)O)[C@H](C)[C@@H](OC)[C@H]5C)O4)O3)O2)O1 [Example A82810]
[1]
  MIC: 8 µg/mL (≈ 9.49 µM)
[2]
  MIC: 1 µg/mL (≈ 1.19 µM)
[3]
  MIC: 0.5 µg/mL (≈ 0.593 µM)
Spider mite
  active at levels as low as: 100 ppm
Southern armyworm
  active at levels as low as: 100 ppm
Blowfly larvae
  active at levels as low as: 100 ppm
Adult stablefly
  active at levels as low as: 50 ppm
[4]
  MIC: 128 µg/mL (≈ 152 µM)
[5]
  MIC: ≤ 0.25 µg/mL
[6]; 0.5 ppm
  TOTAL LESION SCORE: 8.7
  WEIGHT GAIN, PERCENT OF CONTROL: 87% OF CONTROL
[6]; 1 ppm
  TOTAL LESION SCORE: 9.3
  WEIGHT GAIN, PERCENT OF CONTROL: 89% OF CONTROL
[6]; 1.5 ppm
  TOTAL LESION SCORE: 7.7
  WEIGHT GAIN, PERCENT OF CONTROL: 95% OF CONTROL
[6]; 2 ppm
  TOTAL LESION SCORE: 9.6
  WEIGHT GAIN, PERCENT OF CONTROL: 93% OF CONTROL
[6]; 2.5 ppm
  AVERAGE CECAL LESION SCORES: 3.2
  AVERAGE INTESTINAL LESION SCORES: 2.3
  WEIGHT GAIN, PERCENT OF CONTROL: 81% OF CONTROL
[6]; 3 ppm
  AVERAGE CECAL LESION SCORES: 2.9
  AVERAGE INTESTINAL LESION SCORES: 3.3
  WEIGHT GAIN, PERCENT OF CONTROL: 77% OF CONTROL
[6]; 3.5 ppm
  AVERAGE CECAL LESION SCORES: 3.2
  AVERAGE INTESTINAL LESION SCORES: 3.0
  WEIGHT GAIN, PERCENT OF CONTROL: 85% OF CONTROL
[6]; 5 ppm
  AVERAGE CECAL LESION SCORES: 2.3
  AVERAGE INTESTINAL LESION SCORES: 1.3
  WEIGHT GAIN, PERCENT OF CONTROL: 95% OF CONTROL
[6]; 6 ppm
  AVERAGE CECAL LESION SCORES: 3.2
  AVERAGE INTESTINAL LESION SCORES: 1.7
  WEIGHT GAIN, PERCENT OF CONTROL: 98% OF CONTROL
[7]
  MIC: 0.5 µg/mL (≈ 0.593 µM)
physchem
  pKa: 6.6
Brazil influenza virus
  active at a level of: 250 µg/mL
[8]
  MIC: 1 µg/mL (≈ 1.19 µM)
[9]
  MIC: ≤ 0.25 µg/mL
[10]
  MIC: 8 µg/mL (≈ 9.49 µM)
[11]
  MIC: 8 µg/mL (≈ 9.49 µM)
[12]
  MIC: 64 µg/mL (≈ 75.9 µM)
[13]
  active at levels as low as: 1.56 µg/mL
[14]
  MIC: 1 µg/mL (≈ 1.19 µM)
Escherichia coli N10
  MIC: 1 µg/mL (≈ 1.19 µM)
[15]
  MIC: 2 µg/mL (≈ 2.37 µM)
[16]
  active at a level of: 250 µg/mL
Treponema hyodysenteriae
  inhibits the growth at levels as low as: 1.56 µg/mL
Escherichia coli EC14
  MIC: 8 µg/mL (≈ 9.49 µM)
Eimeria tenella
  active at: < 0.0025 µg/mL
[17]; 1.25 ppm
  AVERAGE INTESTINAL LESION SCORES: 4.0
  WEIGHT GAIN, PERCENT OF CONTROL: 93% OF CONTROL
[17]; 1.5 ppm
  AVERAGE INTESTINAL LESION SCORES: 3.3
  INTESTINAL LESION SCORE: 4.0
[17]; 1.75 ppm
  AVERAGE INTESTINAL LESION SCORES: 3.8
  WEIGHT GAIN, PERCENT OF CONTROL: 91% OF CONTROL
[17]; 2 ppm
  INTESTINAL LESION SCORE: 4.0
  LESION SCORE: 2.3
  PERCENT REDUCTION IN OOCYST PRODUCTION: 18%
[17]; 2.5 ppm
  AVERAGE INTESTINAL LESION SCORES: 3.8
  WEIGHT GAIN, PERCENT OF CONTROL: 90% OF CONTROL
[17]; 3 ppm
  AVERAGE INTESTINAL LESION SCORES: 3.1
  WEIGHT GAIN, PERCENT OF CONTROL: 88% OF CONTROL
[17]; 3.5 ppm
  AVERAGE INTESTINAL LESION SCORES: 3.5
  WEIGHT GAIN, PERCENT OF CONTROL: 88% OF CONTROL
[17]; 5 ppm
  AVERAGE INTESTINAL LESION SCORES: 4.0
  WEIGHT GAIN, PERCENT OF CONTROL: 74% OF CONTROL
[17]; 6 ppm
  AVERAGE INTESTINAL LESION SCORES: 4.0
  LESION SCORE: 2.7
  PERCENT REDUCTION IN OOCYST PRODUCTION: 18%
[17]; 10 ppm
  LESION SCORE: 2.4
  PERCENT REDUCTION IN OOCYST PRODUCTION: 36%
  WEIGHT GAIN, PERCENT OF CONTROL: 88% OF CONTROL
